The structures appear in SMILES notation. *1 amine or outer side, *2 acyl side, *3 side chain or, on linkers, in order; H or OH if unused. Where a SMILES comes first, the peptide text is derived from it. Bridges are numbered along the chain shown (N, C = ends). [ ]: non-standard residue; d: D form. Acbc(trans-1,3) = O=C([C@H]1C[C@H](N[*:1])C1)[*:2]; Acbc(cis-1,3) = O=C([C@H]1C[C@@H](N[*:1])C1)[*:2]; X1 = O=C([C@@H]1CCC[C@@H]1N[*:1])[*:2]

One assay addresses T1, Fc-tagged human IFNGR1 (Homo sapiens, UniProt P15260).
T1 construct: purchased ACROBiosystems
T1 sequence (P15260 18-489): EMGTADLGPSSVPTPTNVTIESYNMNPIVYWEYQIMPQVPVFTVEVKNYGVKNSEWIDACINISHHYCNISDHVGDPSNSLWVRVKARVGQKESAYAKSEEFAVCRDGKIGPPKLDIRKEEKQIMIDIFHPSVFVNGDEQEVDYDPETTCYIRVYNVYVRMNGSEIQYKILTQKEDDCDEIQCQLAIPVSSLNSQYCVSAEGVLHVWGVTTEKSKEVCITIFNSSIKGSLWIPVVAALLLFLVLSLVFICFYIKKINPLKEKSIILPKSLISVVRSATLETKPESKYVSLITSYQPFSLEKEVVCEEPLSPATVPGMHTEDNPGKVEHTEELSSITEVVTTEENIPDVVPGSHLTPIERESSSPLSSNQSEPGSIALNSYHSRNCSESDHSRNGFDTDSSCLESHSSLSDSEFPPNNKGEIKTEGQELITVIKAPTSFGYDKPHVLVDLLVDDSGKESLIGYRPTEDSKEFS
Put plainly: Binding kinetics and affinity to IFNGR1 by surface plasmon resonance (SPR). The following applies: SPR, 25 °C, 1:1 binding model; for Kd: read-out: KD; for kon: single-cycle kinetics, read-out: ka. As to the method:
Binding affinities of IA1 and IA2 against IFNGR1 were evaluated by surface plasmon resonance (SPR) (Table 1 and SI Figure S6A). […] To investigate the contribution of the N-terminal [yVPβ^1RR] motif and β^1 residue in IA1, three scrambled peptides IA1s1–3 and a variant IA1β^14A were synthesized and evaluated. […] We next evaluated inhibitory activities of IA1 and IA2 against the ligand–receptor PPI between IFN-γ and IFNGR1 using AlphaLISA (Table 1 and SI Figure S7).[37] […] We also determined the serum half-lives of IA1 and IA2, considering peptidase resistance as an important factor for therapeutic peptides.[24] A sample peptide and a peptidase-resistant internal standard peptide were coincubated in human serum at 37 °C, and the relative amount of the remaining sample peptide was estimated by LC/MS. […]
Evaluation of binding affinity of peptides by surface plasmon resonance The binding affinities of selected peptides and IFNGR1 were analyzed by surface plasmon resonance (SPR) using a Biacore T200 instrument (Cytiva) at 25 °C with the following running buffer: 10 mM Tris-HCl (pH 8.0), 150 mM NaCl, 0.05% (v/v) Tween 20 , and 0.1% (v/v) DMSO. Fc-tagged IFNGR1 was immobilized on a series S sensor chip protein G (Cytiva) to a surface density of 1,200–1,600 response units following the immobilization protocols provided by Cytiva. The kinetic constants were determined by a single-cycle kinetics method by the injection of five different concentrations (twofold dilution series) of each peptide at a flow rate of 30 μL/min. The resulting sensorgrams were fitted to the standard 1:1 interaction model and analyzed using Biacore evaluation software. […]
(In general: SPR reads the build-up and loss of mass on a sensor chip optically.)

Assay [1] addresses T2, IFN-γ/IFNGR1 protein–protein interaction (Homo sapiens, UniProt P15260).
T2 construct: purchased ACROBiosystems
T2 sequence (P15260 18-245 limits assumed): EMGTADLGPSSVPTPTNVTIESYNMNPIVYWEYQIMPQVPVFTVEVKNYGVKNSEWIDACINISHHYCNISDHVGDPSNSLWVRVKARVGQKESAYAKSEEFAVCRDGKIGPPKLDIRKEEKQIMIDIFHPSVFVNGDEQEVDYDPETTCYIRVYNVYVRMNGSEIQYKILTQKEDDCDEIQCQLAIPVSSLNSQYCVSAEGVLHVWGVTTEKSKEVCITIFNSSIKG
Kind of assay: IFNGR1 inhibition assay using AlphaLISA. Particulars: four-parameter dose–response fit, n = 3. Type of assay: biochemical. As to the method:
IFNGR1 inhibition assay using AlphaLISA
The inhibitory activity of peptides against IFN-γ/IFNGR1 protein–protein interaction (PPI) was determined by AlphaLISA.5 Peptides, proteins, and beads were diluted in AlphaLISA immunoassay buffer (PerkinElmer, AL000C). 3.6 μL of 5 nM Fc-tagged IFNGR1 and 3.6 μL of synthetic peptides were mixed in AlphaPlate-384 Shallow Well (PerkinElmer) and preincubated at 25 °C for 10 min. 3.6 μL of 15 nM biotin-tagged IFN-γ was then added to the mix and incubated at 25 °C for 20 min. 3.6 μL each human IgG acceptor beads (PerkinElmer) and streptavidin donor beads (PerkinElmer) were added to the above mix and incubated at 25 °C for 30 min in dark place. Emission at 615 nm was measured […]
by EnSpire Multimode Plate Reader (PerkinElmer). The fraction of bound IFN-γ/IFNGR1 was calculated by the intensity of emission in the presence of peptide divided by that in the absence of […]
peptide. […]
Puromycin. Normocin, Blasticidin, Zeocin, and Puromycin were excluded when conducting the experiments. To evaluate the cellular activity of peptides, peptide mixtures were added to 50,000 cells/well in a flat-bottom 96-well plate and pre-incubated for 30 min at 37 °C before stimulation.
Subsequently, 1 ng/mL of recombinant IFN-γ (InvivoGen) was added to each well in a final reaction volume of 200 μL, followed by incubation for 20 h at 37 °C. 20 μL of supernatants from the induced cells was added to 180 μL Q U A N T I-Blue TM solution (InvivoGen). After further incubation for 3 h at 37 °C, the expression levels of the secreted embryonic alkaline phosphatase (SEAP) were determined by reading the O.D. at 650 nm on a Tecan M1000 PRO microplate reader (Tecan Group) and normalized to the non-treated well. IC50 value was analyzed by a normalized dose-response curve fitting by using GraphPad Prism 9.
HEK-DualTM IFN-γ cells were used for the cell viability assay. 10,000 cells/well were added to each well in a flat-bottom 96-well plate. After 24 h, peptide mixtures were added to each well in a final volume of 100 μL. After further incubation for 24 h, 10 μL CCK-8 reagent (Dojindo) was added to […]
(Alpha assays give light when donor and acceptor beads are brought close together.)

As usually defined, the Kd is the concentration at which binding is half-saturated. As a reminder, the IC50 is the concentration that gives 50% inhibition. Read a low IC50 as greater potency. For `CC(C)[C@@H]1NC(=O)[C@@H](Cc2ccc(O)cc2)NC(=O)CSC[C@H](C(N)=O)NC(=O)[C@H](CC(N)=O)NC(=O)[C@H](CO)NC(=O)[C@H](CCCNC(=N)N)NC(=O)[C@H]2C[C@H](C2)NC(=O)[C@H](Cc2c[nH]cn2)NC(=O)[C@H](CC(N)=O)NC(=O)[C@H]([C@@H](C)O)NC(=O)[C@H](Cc2c[nH]cn2)NC(=O)[C@H](CCCNC(=N)N)NC(=O)[C@H](CCCNC(=N)N)NC(=O)[C@@H]2CCC[C@@H]2NC(=O)[C@@H]2CCCN2C1=O` [IA1, ^AcyVPβ^1RRHTNHγ^1RSNc-NH2] ({CH2CO}-[dY]VP[X1]RRHTNH[Acbc(cis-1,3)]RSN[dC]-NH2; thioether N-15), at Fc-tagged human IFNGR1, the Kd worked out at 87 ± 2 nM and the kon is 180000 M⁻¹ s⁻¹. Moreover, the midpoint of inhibition in assay [1], the IC50, lay at 87 ± 15 nM.

As for `CC(C)[C@@H]1NC(=O)[C@@H](Cc2ccc(O)cc2)NC(=O)CSC[C@H](C(N)=O)NC(=O)[C@H](CCCNC(=N)N)NC(=O)[C@H](CO)NC(=O)[C@H](CCCNC(=N)N)NC(=O)[C@H](Cc2c[nH]cn2)NC(=O)CNC(=O)[C@H]2C[C@H](C2)NC(=O)[C@H](Cc2c[nH]cn2)NC(=O)[C@H](CC(N)=O)NC(=O)[C@H](CCCNC(=N)N)NC(=O)[C@H](CCCNC(=N)N)NC(=O)[C@@H]2CCC[C@@H]2NC(=O)[C@H](C)NC1=O` [IB1, ^AcyVAβ^1RRNHγ^1GHRSRc-NH2] ({CH2CO}-[dY]VA[X1]RRNH[Acbc(cis-1,3)]GHRSR[dC]-NH2; thioether N-15), at Fc-tagged human IFNGR1, the Kd was 11 nM and the kon was 650000 ± 20000 M⁻¹ s⁻¹. The compound also showed an IC50 in assay [1] of 12 ± 3 nM.

On to `CC(C)[C@@H]1NC(=O)[C@@H](Cc2ccc(O)cc2)NC(=O)CSC[C@H](C(N)=O)NC(=O)[C@H](CCCNC(=N)N)NC(=O)[C@H](CO)NC(=O)[C@H](CCCNC(=N)N)NC(=O)[C@H](Cc2c[nH]cn2)NC(=O)CNC(=O)[C@H]2C[C@H](C2)NC(=O)[C@H](Cc2c[nH]cn2)NC(=O)[C@H](CC(N)=O)NC(=O)[C@H](CCCNC(=N)N)NC(=O)[C@H](CCCNC(=N)N)NC(=O)[C@H](C)NC(=O)[C@H](C)NC1=O` [IB1β^14A, ^AcyVAA RRNHγ^1GHRSRc-NH2] ({CH2CO}-[dY]VAARRNH[Acbc(cis-1,3)]GHRSR[dC]-NH2; thioether N-15), for which the Kd on Fc-tagged human IFNGR1 was more than 10000 nM. Moreover, the half-inhibitory concentration (IC50) in assay [1] is more than 100000 nM.

Regarding `CC(C)[C@@H]1NC(=O)[C@@H](Cc2ccc(O)cc2)NC(=O)CSC[C@H](C(N)=O)NC(=O)[C@H](C)NC(=O)[C@H](Cc2c[nH]cn2)NC(=O)[C@H](CCCNC(=N)N)NC(=O)[C@H](CCCNC(=N)N)NC(=O)CNC(=O)[C@H]2C[C@@H](C2)NC(=O)[C@H](Cc2c[nH]cn2)NC(=O)[C@H](CC(N)=O)NC(=O)[C@H](CCCNC(=N)N)NC(=O)[C@H](CCCNC(=N)N)NC(=O)[C@@H]2CCC[C@@H]2NC(=O)[C@H](C)NC1=O` [IB2γ^19γ^2, ^AcyVAβ^1RRNHγ^2GRRHAc-NH2] ({CH2CO}-[dY]VA[X1]RRNH[Acbc(trans-1,3)]GRRHA[dC]-NH2; thioether N-15), on Fc-tagged human IFNGR1, the Kd is 68 ± 12 nM and the kon was determined as 75000 ± 25000 M⁻¹ s⁻¹. Besides, the IC50 in assay [1] worked out at 680 ± 50 nM.

With `CC(C)[C@@H]1NC(=O)[C@@H](Cc2ccc(O)cc2)NC(=O)CSC[C@H](C(N)=O)NC(=O)[C@H](C)NC(=O)[C@H](CO)NC(=O)[C@H](CCCNC(=N)N)NC(=O)[C@H](CCCNC(=N)N)NC(=O)CNC(=O)[C@H]2C[C@H](C2)NC(=O)[C@H](Cc2c[nH]cn2)NC(=O)[C@H](CC(N)=O)NC(=O)[C@H](CCCNC(=N)N)NC(=O)[C@H](CCCNC(=N)N)NC(=O)[C@@H]2CCC[C@@H]2NC(=O)[C@H](C)NC1=O` [IB3, ^AcyVAβ^1RRNHγ^1GRRSAc-NH2] ({CH2CO}-[dY]VA[X1]RRNH[Acbc(cis-1,3)]GRRSA[dC]-NH2; thioether N-15), at Fc-tagged human IFNGR1, the Kd came out at 9.5 ± 0.7 nM and the kon worked out at 930000 ± 420000 M⁻¹ s⁻¹. For the same compound, inhibition in assay [1] was half-maximal at 12 nM (IC50).

Take `CC(C)[C@@H]1NC(=O)[C@@H](Cc2ccc(O)cc2)NC(=O)CSC[C@H](C(N)=O)NC(=O)[C@H](C)NC(=O)[C@H](CO)NC(=O)[C@H](CCCNC(=N)N)NC(=O)[C@H](CCCNC(=N)N)NC(=O)CNC(=O)[C@H]2C[C@@H](C2)NC(=O)[C@H](Cc2c[nH]cn2)NC(=O)[C@H](CC(N)=O)NC(=O)[C@H](CCCNC(=N)N)NC(=O)[C@H](CCCNC(=N)N)NC(=O)[C@@H]2CCC[C@@H]2NC(=O)[C@H](C)NC1=O` [IB3γ^19γ^2, ^AcyVAβ^1RRNHγ^2GRRSAc-NH2] ({CH2CO}-[dY]VA[X1]RRNH[Acbc(trans-1,3)]GRRSA[dC]-NH2; thioether N-15): on Fc-tagged human IFNGR1, the Kd was found to be 49 ± 7 nM and the kon came out at 470000 ± 320000 M⁻¹ s⁻¹. In addition, the IC50 in assay [1] turned out to be 350 ± 30 nM.

Regarding `CC(C)[C@@H]1NC(=O)[C@@H](Cc2ccc(O)cc2)NC(=O)CSC[C@H](C(N)=O)NC(=O)[C@H](CC(N)=O)NC(=O)[C@H](Cc2c[nH]cn2)NC(=O)[C@H](CCCNC(=N)N)NC(=O)[C@H]2C[C@@H](C2)NC(=O)[C@H]([C@@H](C)O)NC(=O)[C@H](Cc2c[nH]cn2)NC(=O)[C@@H]2CCCN2C(=O)[C@H](CO)NC(=O)[C@H](CCCNC(=N)N)NC(=O)[C@H](CCCNC(=N)N)NC(=O)[C@@H]2CCC[C@@H]2NC(=O)[C@@H]2CCCN2C1=O` [IB5, ^AcyVPβ^1RRSPHTγ^2RHNc-NH2] ({CH2CO}-[dY]VP[X1]RRSPHT[Acbc(trans-1,3)]RHN[dC]-NH2; thioether N-15), at Fc-tagged human IFNGR1, the Kd worked out at 130 ± 20 nM and the kon was determined as 17000 ± 5000 M⁻¹ s⁻¹. This compound also displayed a half-inhibitory concentration (IC50) in assay [1] of 220 ± 10 nM.

(Values after publication PMC11229689, “In Vitro Selection of Macrocyclic L-α/D-α/β/γ-Hybrid Peptides Targeting IFN-γ/IFNGR1 Protein–Protein Interaction” (Journal of the American Chemical Society, 2024).)
